The values that follow come from ChEMBL document CHEMBL1144775, “Secondary metabolites from three Florida sponges with antidepressant activity” (J Nat Prod, 2008).

Series [1] deals with Mus musculus. As to the kind of experiment: Antidepressant like activity in ip dosed Swiss Webster mouse assessed as reduction of immobility time by forced-swim test. Type of series: functional, organism-based.
The species named for series [2] is Mus musculus. The series is described as follows: Sedative effect in Swiss Webster mouse assessed as locomotor activity. As to conditions: in vivo. Type of series: organism-based.
The test system of series [3] is Gallus gallus. As to the kind of experiment: Antidepressant activity in Cockerels assessed as attenuation separation distress vocalization rate in final 30 mins of depression phase at 30 mg/kg, ip. Type of series: functional, organism-based. Further details: dose 30 mg/kg.
In series [4] the test system is Gallus gallus. The series is described as follows: Anxiolytic activity in Cockerels assessed as attenuation separation distress vocalization rate during first 5 mins in anxiety phase at 30 mg/kg, ip. In kind it is functional, organism-based. Also noted: dose 30 mg/kg.
The test system of series [5] is Mus musculus. The series is described as follows: Antidepressant like activity in Swiss Webster mouse assessed as reduction of immobility time at 20 mg/kg, ip after 30 mins by forced-swim test. In kind it is functional, organism-based. Further details: dose 20 mg/kg.

Calls of active or inactive are those of the source. The calls are words filed in the database; no cut-off is given here.

For `CN1C(=N)N(C)/C(=C/c2c[nH]c3ccccc23)C1=O`, the result in the series with Mus musculus [1] was inactive.

As to `CN(C)CCc1c[nH]c2ccc(Br)cc12`, the result in the series on Mus musculus [1] was inactive. In the series listed under Mus musculus [2], the result was Active.

On to `C=C1CCC[C@H]2[C@](C)(CC3=C(O)C(=O)C=C(OC)C3=O)[C@@H](C)CC[C@]12C`, for which the result in the series on Mus musculus [1] was inactive.

In the case of `CN(C)CCc1c[nH]c2cc(Br)c(Br)cc12`, the result with Gallus gallus [3], in the series on Gallus gallus [4] and in the series with Mus musculus [5] was Active.
